{
  "source": "ChEMBL document CHEMBL1201862",
  "about": "“PubChem BioAssay data set” (2004)",
  "key": {"Escherichia coli": {"system": "Escherichia coli", "experiment": "microbe, parasite or virus in culture"}, "[1]": {"experiment": "Luminescence Cell-Based Dose Retest to Confirm Inhibitors of Cancer Stem Cells. [Related pubchem assays (depositor defined):AID2717, AID2721]", "assay_type": "functional", "settings": "Homo sapiens"}, "[2]": {"molecular_target": "T1, Alkaline phosphatase, tissue-nonspecific isozyme (Homo sapiens, UniProt P05186)", "T1 sequence (P05186 whole entry)": "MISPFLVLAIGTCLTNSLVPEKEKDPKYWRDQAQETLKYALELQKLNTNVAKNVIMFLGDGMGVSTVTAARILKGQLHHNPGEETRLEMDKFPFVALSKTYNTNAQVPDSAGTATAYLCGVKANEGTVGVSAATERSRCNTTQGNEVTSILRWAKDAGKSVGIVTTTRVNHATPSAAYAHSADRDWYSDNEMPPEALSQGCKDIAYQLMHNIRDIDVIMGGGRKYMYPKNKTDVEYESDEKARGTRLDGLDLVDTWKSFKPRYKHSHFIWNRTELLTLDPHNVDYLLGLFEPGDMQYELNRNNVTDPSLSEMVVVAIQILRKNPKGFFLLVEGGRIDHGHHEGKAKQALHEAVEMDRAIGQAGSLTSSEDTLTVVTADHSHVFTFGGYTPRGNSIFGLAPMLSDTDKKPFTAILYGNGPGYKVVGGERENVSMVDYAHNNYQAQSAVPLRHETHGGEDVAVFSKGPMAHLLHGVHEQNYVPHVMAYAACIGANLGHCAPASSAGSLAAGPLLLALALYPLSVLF", "experiment": "TNAP enzyme activators, dose response, selectivity assay for human IAP activator project, biochemical, TNAP isozyme, human IAP uHTS hits (AID 488886);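 further: potency of compounds raising TNAP activity as a selectivity check on IAP activators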", "assay_type": "functional"}, "[3]": {"molecular_target": "T2, Intestinal-type alkaline phosphatase (Homo sapiens, UniProt P09923)", "T2 sequence (P09923 whole entry)": "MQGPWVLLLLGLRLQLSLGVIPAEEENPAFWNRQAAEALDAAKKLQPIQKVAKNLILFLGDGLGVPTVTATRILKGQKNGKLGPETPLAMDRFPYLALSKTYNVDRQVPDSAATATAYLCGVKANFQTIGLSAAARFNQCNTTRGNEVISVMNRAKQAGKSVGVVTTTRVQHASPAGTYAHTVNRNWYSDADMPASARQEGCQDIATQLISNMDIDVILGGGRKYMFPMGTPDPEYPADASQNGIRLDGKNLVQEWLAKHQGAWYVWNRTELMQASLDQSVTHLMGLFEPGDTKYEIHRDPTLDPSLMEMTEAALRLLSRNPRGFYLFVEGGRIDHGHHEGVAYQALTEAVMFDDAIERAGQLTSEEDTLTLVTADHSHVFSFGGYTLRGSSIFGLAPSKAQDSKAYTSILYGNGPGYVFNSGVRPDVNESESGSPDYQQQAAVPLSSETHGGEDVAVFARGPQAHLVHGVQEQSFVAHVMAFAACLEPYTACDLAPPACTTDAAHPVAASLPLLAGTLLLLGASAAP", "experiment": "human IAP activators, dose response, biochemical, luminescent, uHTS hits, set 2 (AID 488817);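 further: potency of activators that raise enzyme activity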", "assay_type": "functional"}, "[4]": {"molecular_target": "T2, Intestinal-type alkaline phosphatase", "experiment": "human intestinal alkaline phosphatase activators, dose response, biochemical, luminescence, uHTS hits (AID 463120)", "assay_type": "functional"}, "[5]": {"molecular_target": "Intestinal-type alkaline phosphatase (Mus musculus, UniProt P24822)", "sequence (P24822 whole entry)": "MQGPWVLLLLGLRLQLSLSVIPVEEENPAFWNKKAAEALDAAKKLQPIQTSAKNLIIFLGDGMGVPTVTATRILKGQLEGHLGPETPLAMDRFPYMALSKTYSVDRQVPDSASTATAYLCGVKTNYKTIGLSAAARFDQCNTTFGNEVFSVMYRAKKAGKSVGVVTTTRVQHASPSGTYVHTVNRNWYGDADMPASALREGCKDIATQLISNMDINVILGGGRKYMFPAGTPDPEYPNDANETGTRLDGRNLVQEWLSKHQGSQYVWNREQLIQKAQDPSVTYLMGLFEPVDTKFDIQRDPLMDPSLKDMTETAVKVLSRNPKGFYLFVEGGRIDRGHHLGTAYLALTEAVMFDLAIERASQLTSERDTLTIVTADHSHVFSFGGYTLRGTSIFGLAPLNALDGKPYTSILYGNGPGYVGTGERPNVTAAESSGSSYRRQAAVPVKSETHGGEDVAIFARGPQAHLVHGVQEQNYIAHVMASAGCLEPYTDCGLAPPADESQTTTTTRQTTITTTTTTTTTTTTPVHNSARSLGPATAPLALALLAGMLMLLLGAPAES", "experiment": "PubChem AID 488874", "assay_type": "functional"}, "Hexokinase HKDC1": {"molecular_target": "T3, Hexokinase HKDC1 (Homo sapiens, UniProt Q2TB90)", "T3 sequence (Q2TB90 whole entry)": "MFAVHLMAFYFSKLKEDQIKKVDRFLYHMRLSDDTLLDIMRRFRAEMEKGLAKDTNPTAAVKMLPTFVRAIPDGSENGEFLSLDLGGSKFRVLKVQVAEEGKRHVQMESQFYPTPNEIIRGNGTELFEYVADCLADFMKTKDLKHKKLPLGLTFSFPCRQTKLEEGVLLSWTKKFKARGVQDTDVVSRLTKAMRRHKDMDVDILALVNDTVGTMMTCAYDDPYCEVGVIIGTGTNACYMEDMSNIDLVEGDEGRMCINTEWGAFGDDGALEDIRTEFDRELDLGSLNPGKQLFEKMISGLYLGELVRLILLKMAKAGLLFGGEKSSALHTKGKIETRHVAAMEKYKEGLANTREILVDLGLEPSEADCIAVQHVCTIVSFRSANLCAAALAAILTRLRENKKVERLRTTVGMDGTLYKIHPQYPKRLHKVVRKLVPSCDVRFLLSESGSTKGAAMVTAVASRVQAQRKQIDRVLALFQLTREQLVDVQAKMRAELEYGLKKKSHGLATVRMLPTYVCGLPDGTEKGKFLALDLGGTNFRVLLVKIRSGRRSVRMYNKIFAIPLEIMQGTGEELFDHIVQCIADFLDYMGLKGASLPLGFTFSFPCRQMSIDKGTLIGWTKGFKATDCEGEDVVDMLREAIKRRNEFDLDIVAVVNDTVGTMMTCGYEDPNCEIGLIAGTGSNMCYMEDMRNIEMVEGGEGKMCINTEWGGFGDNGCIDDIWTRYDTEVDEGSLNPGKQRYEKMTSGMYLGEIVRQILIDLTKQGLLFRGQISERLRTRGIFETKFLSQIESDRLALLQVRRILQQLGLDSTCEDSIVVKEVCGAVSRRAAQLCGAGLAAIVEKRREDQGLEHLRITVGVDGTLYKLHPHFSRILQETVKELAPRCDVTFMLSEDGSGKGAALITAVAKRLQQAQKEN", "experiment": "HKDC1 hexokinase activators, dose response, biochemical, W721R variant (AID 504730)", "assay_type": "functional"}, "Hexokinase-1": {"molecular_target": "T4, Hexokinase-1 (Homo sapiens, UniProt P19367)", "T4 sequence (P19367 whole entry)": "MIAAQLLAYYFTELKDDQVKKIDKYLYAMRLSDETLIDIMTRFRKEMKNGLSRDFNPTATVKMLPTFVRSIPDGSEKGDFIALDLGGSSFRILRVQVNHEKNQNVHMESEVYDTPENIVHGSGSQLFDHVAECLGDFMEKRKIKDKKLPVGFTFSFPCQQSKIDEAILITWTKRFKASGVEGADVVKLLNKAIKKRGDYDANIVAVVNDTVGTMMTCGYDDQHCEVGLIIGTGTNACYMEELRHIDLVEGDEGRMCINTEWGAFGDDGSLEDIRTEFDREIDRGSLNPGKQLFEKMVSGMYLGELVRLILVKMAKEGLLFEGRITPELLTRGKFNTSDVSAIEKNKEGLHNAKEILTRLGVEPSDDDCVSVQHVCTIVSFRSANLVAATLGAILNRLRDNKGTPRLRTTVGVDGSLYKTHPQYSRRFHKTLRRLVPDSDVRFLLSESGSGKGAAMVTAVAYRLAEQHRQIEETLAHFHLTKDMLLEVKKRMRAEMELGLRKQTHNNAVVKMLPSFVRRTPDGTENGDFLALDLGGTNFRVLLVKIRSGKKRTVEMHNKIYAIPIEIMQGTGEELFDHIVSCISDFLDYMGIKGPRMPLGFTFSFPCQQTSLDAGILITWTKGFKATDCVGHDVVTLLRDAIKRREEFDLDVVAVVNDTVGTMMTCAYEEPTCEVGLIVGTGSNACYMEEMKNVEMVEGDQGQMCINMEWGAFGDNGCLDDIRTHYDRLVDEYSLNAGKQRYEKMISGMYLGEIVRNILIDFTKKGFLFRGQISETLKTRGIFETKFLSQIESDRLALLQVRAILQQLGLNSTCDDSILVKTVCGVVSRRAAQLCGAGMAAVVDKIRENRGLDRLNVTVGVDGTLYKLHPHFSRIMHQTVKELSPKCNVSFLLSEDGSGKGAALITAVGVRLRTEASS", "experiment": "hexokinase 1 activators, dose response, selectivity assay for HKDC1 activator project, biochemical (AID 504762)", "assay_type": "functional"}, "[6]": {"molecular_target": "Histone-lysine N-methyltransferase NSD2 (Homo sapiens, UniProt O96028)", "sequence (O96028 whole entry)": "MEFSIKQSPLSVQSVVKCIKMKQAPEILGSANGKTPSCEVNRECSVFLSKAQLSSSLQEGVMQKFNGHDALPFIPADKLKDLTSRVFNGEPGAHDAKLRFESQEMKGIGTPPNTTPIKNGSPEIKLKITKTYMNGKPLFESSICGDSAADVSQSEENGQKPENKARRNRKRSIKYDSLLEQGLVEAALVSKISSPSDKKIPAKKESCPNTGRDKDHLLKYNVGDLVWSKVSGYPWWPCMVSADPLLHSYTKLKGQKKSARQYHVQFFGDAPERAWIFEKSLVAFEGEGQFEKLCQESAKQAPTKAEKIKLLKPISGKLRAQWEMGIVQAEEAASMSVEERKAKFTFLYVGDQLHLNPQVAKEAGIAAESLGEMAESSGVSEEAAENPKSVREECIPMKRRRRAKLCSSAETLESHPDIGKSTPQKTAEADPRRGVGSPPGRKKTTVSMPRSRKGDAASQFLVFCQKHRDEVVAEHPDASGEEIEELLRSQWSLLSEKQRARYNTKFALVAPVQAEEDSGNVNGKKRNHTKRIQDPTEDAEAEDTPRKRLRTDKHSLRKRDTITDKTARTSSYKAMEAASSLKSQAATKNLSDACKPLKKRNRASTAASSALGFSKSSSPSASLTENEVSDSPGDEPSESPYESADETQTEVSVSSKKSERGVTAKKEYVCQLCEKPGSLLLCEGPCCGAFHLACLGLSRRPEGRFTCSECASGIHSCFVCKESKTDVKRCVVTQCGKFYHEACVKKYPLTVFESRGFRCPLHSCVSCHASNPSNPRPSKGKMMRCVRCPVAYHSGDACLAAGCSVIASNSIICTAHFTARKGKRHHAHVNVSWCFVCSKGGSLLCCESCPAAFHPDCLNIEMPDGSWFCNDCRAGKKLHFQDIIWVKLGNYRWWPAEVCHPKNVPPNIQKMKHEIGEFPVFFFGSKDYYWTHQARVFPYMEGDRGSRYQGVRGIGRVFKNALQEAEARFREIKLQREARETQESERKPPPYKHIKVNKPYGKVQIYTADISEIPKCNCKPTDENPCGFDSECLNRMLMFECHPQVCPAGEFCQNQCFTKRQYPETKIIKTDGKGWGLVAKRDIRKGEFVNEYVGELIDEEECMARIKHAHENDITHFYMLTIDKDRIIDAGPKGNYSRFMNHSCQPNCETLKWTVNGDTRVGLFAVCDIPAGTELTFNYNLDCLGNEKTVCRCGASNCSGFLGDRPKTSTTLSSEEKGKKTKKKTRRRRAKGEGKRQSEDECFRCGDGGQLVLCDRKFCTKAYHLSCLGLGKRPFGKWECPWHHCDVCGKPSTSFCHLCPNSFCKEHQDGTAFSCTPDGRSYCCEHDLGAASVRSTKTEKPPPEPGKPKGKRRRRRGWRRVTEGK", "assay_type": "biochemical"}},
  "note": "The source made the active and inactive calls.",
  "data": [
    {"smiles": "O=S(=O)(c1ccc2nc(O)sc2c1)N1CCCCC1", "values": [
      {"measurement": "AC50", "setting": "Escherichia coli", "value": "> 150 µM (inactive)"}
    ]},
    {"smiles": "O=C(Nc1ccon1)c1nc[nH]c1C(=O)NCc1ccccc1", "values": [
      {"measurement": "AC50", "setting": "[1]", "value": "0.76 µM (active)"},
      {"measurement": "EC50", "setting": "[2]", "value": "16.4 µM (active)"},
      {"measurement": "EC50", "setting": "[3]", "value": "13.9 µM (active)"},
      {"measurement": "EC50", "setting": "[4]", "value": "14.2 µM (active)"},
      {"measurement": "IC50", "setting": "[5]", "value": "38.8 µM (active)"}
    ]},
    {"smiles": "CC(=O)Oc1cccc2c1C(=O)C1CC=CC(OC(C)=O)C1C2=O", "note": "(centres undefined)", "values": [
      {"measurement": "EC50", "setting": "Hexokinase HKDC1", "value": "51.6 µM (inactive)"},
      {"measurement": "EC50", "setting": "Hexokinase-1", "value": "34.1 µM (inactive)"},
      {"measurement": "AC50", "setting": "[6]", "value": "10.4 µM (active)"}
    ]}
  ]
}
